# Reference: ChEMBL document CHEMBL3588832, “The biology and synthesis of α-hydroxytropolones” (Medchemcomm, 2014)
# Assays:
# [1] = Inhibition of HIV integrase 3' processing activity; parameters: species or system Human immunodeficiency virus
# [2] = Inhibition of HIV reverse transcriptase RNase H; parameters: species or system Human immunodeficiency virus
# [3] = Inhibition of HIV reverse transcriptase polymerase; parameters: species or system Human immunodeficiency virus
# Escherichia coli [4] = assay: Inhibition of Escherichia coli W677/JR76.2 2'-O-adenylyltransferase at 55 uM using aminoglycoside and [14C]ATP incubated for 15 mins by liquid scintillation counting based radiochemical assay
# Escherichia coli [5] = assay: Inhibition of Escherichia coli W677/JR76.2 2'-O-adenylyltransferase at 5.5 uM using aminoglycoside and [14C]ATP incubated for 15 mins by liquid scintillation counting based radiochemical assay
# [6] = Inhibition of phosphotidylcholine-preferring phospholipase C (unknown origin) at pH 7.3; parameters: species or system Homo sapiens
# [7] = Inhibition of phosphotidylcholine-preferring phospholipase C (unknown origin) at pH 9.5; parameters: species or system Homo sapiens
# Escherichia coli [8] = assay: Inhibition of Escherichia coli W677/JR76.2 2'-O-adenylyltransferase at 550 uM using aminoglycoside and [14C]ATP incubated for 15 mins by liquid scintillation counting based radiochemical assay
# Staphylococcus aureus = assay: Antibacterial activity against Staphylococcus aureus; type: functional
# Aspergillus fumigatus = assay: Antifungal activity against Aspergillus fumigatus IAM2350; type: functional
# Micrococcus luteus = assay: Antibacterial activity against Micrococcus luteus; type: functional
# Pseudomonas aeruginosa = assay: Antibacterial activity against Pseudomonas aeruginosa; type: functional
# Klebsiella pneumoniae = assay: Antibacterial activity against Klebsiella pneumoniae; type: functional
# Escherichia coli [9] = assay: Antibacterial activity against Escherichia coli NIHJ; type: functional
# B16 [10] = assay: Cytotoxicity against mouse B16 cells; type: functional, cell-based
# Plasmodium falciparum [11] = assay: Antimalarial activity against chloroquine-resistant Plasmodium falciparum K1; type: functional, organism-based
# Plasmodium falciparum [12] = assay: Antimalarial activity against Plasmodium falciparum FCR-3/Gambia; type: functional, organism-based
# MRC5 = assay: Cytotoxicity against human MRC5 cells; type: functional, cell-based
# [13] = Inhibition of inositol monophosphatase (unknown origin); parameters: species or system Homo sapiens
# [14] = Inhibition of alkaline phosphatase (unknown origin); parameters: species or system Homo sapiens
# [15] = molecular target: T1, Dopamine beta-hydroxylase (Homo sapiens, UniProt P09172); assay: Inhibition of dopamine beta-oxygenase (unknown origin)
# T1 sequence (P09172 whole entry): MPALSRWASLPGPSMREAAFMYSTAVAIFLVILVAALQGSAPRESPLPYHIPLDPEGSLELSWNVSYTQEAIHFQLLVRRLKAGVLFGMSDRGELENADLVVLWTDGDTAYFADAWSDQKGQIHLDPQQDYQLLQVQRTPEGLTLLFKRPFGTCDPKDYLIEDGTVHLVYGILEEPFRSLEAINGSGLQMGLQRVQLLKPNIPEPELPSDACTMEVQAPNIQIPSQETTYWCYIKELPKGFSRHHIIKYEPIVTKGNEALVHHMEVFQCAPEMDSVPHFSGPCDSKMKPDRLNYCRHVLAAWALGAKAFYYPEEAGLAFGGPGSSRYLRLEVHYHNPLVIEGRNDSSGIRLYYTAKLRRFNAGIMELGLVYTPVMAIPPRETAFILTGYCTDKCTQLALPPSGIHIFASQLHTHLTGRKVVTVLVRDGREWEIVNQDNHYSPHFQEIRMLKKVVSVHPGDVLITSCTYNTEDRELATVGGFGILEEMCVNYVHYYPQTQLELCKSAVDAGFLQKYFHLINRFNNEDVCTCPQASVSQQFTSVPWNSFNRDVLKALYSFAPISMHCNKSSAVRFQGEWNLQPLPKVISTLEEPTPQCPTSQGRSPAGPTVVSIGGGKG
# [16] = Inhibition of HIV integrase strand transfer activity; parameters: species or system Human immunodeficiency virus
# B16 [17] = assay: Antitumor activity against mouse B16 cells implanted in mouse assessed as mouse survival at 1 mg/kg/day (reference value: 16 days); type: functional
# [18] = Inhibition of HIV1 reverse transcriptase RNase H; parameters: species or system Human immunodeficiency virus 1
# [19] = Inhibition of HIV2 reverse transcriptase RNase H; parameters: species or system Human immunodeficiency virus 2
# [20] = Inhibition of Escherichia coli ribonuclease H
# [21] = Inhibition of human ribonuclease H
# Escherichia coli [22] = assay: Inhibition of Escherichia coli W677/JR76.2 2'-O-adenylyltransferase at 650 uM using aminoglycoside and [14C]ATP incubated for 15 mins by liquid scintillation counting based radiochemical assay
# Escherichia coli [23] = assay: Inhibition of Escherichia coli W677/JR76.2 2'-O-adenylyltransferase at 6.5 uM using aminoglycoside and [14C]ATP incubated for 15 mins by liquid scintillation counting based radiochemical assay
# [24] = system: Human immunodeficiency virus 1; assay: Antiviral activity against HIV1 assessed as inhibition of viral replication in cell based assay; type: functional, organism-based
# B16 [25] = assay: Inhibition of DNA synthesis in mouse B16 cells; type: functional, cell-based
# B16 [26] = assay: Inhibition of RNA synthesis in mouse B16 cells; type: functional, cell-based
# B16 [27] = assay: Inhibition of protein synthesis in mouse B16 cells; type: functional, cell-based
# B16 [28] = assay: Antitumor activity against mouse B16 cells implanted in mouse assessed as mouse survival at 1.3 mg/kg/day (reference value: 16 days); type: functional
# B16 [29] = assay: Antitumor activity against mouse B16 cells implanted in mouse assessed as mouse survival at 2.5 mg/kg/day (reference value: 16 days); type: functional
# Escherichia coli [30] = assay: Inhibition of Escherichia coli W677/JR76.2 2'-O-adenylyltransferase at 730 uM using aminoglycoside and [14C]ATP incubated for 15 mins by liquid scintillation counting based radiochemical assay
# Escherichia coli [31] = assay: Inhibition of Escherichia coli W677/JR76.2 2'-O-adenylyltransferase at 7.3 uM using aminoglycoside and [14C]ATP incubated for 15 mins by liquid scintillation counting based radiochemical assay
# [32] = Inhibition of hepatitis B virus genotype D RNaseH
# [33] = Inhibition of hepatitis B virus genotype H RNaseH
# Hepatitis B virus [34] = assay: Antiviral activity against HBV assessed as inhibition of viral replication in cell based assay; type: functional, organism-based
# [35] = Inhibition of XMRV RNaseH; parameters: species or system Xenotropic MuLV-related virus
# Poria = assay: Antifungal activity against Poria monticola; type: functional
# Coniophora puteana = assay: Antifungal activity against Coniophora puteana; type: functional
# [36] = Antifungal activity against Polyporus versicolor; type: functional
# [37] = Antifungal activity against Stereum sanguinolentum; type: functional
# [38] = Antifungal activity against Phellinus weirii; type: functional
# [39] = Toxicity in mouse assessed as induction of mortality after 48 hrs; type: organism-based; settings: in vivo
# [40] = Toxicity in mouse assessed as induction of mortality after 72 hrs; type: organism-based; settings: in vivo
# Hepatitis B virus [41] = assay: Antiviral activity against HBV assessed as inhibition of viral replication at 10 uM in cell based assay; type: functional
# Plasmodium falciparum [42] = assay: Antimalarial activity against Plasmodium falciparum infected in mouse; type: functional
smiles,measurement,setting,value
CC(=O)Oc1cccc(OC(C)=O)c(=O)c1OC(C)=O,IC50,[1],> 1000 µM
same,IC50,[2],> 1000 µM
same,IC50,[3],30 µM
O=c1c(O)ccccc1O,inhibition,Escherichia coli [4],78%
same,inhibition,Escherichia coli [5],8%
same,Ki,[6],16 µM
same,Ki,[7],23 µM
same,inhibition,Escherichia coli [8],100%
same,MIC,Staphylococcus aureus,90 µM
same,MIC,Aspergillus fumigatus,730 µM
same,MIC,Micrococcus luteus,90 µM
same,MIC,Pseudomonas aeruginosa,700 µM
same,MIC,Klebsiella pneumoniae,360 µM
same,MIC,Escherichia coli [9],45 µM
same,IC50,B16 [10],2.2 µM
same,IC50,Plasmodium falciparum [11],6.4 µM
same,IC50,Plasmodium falciparum [12],8.7 µM
same,IC50,MRC5,1.7 µM
same,IC50,[13],75 µM
same,IC50,[14],15 µM
same,IC50,[15],2 µM
CC(=O)Nc1ccc(-c2cc(-c3ccc(NC(C)=O)cc3)c(O)c(=O)c(O)c2O)cc1,IC50,[1],0.15 µM
same,IC50,[16],1.7 µM
same,IC50,[2],900 µM
same,IC50,[3],52 µM
CO[C@@]12[C@H](COC(N)=O)C3=C(C(=O)C(C)=C(N)C3=O)N1C[C@@H]1N[C@@H]12 [MITOMYCIN],MST,B16 [17],27 days
N#Cc1ccc(-c2ccc(O)c(=O)c(O)c2O)cc1,IC50,[13],4 µM
O=c1c(O)c(O)ccc(-c2cccc([N+](=O)[O-])c2)c1O,IC50,[1],0.7 µM
same,IC50,[16],0.8 µM
same,IC50,[2],1.3 µM
same,IC50,[3],2.3 µM
COc1cc(C(=O)O)cc(O)c(OC)c1=O,IC50,Plasmodium falciparum [11],3.7 µM
O=c1c(O)ccc(O)cc1O,IC50,B16 [10],2.5 µM
O=c1ccc(O)ccc1O,IC50,B16 [10],13 µM
O=Cc1ccc(-c2ccc(O)c(=O)c(O)c2O)cc1,IC50,[1],0.6 µM
same,IC50,[16],1.2 µM
same,IC50,[2],12 µM
same,IC50,[3],0.6 µM
CC(C)c1ccccc(=O)c1O [ALPHA-THUJAPLICIN],IC50,[18],50 µM
same,IC50,[19],33 µM
same,IC50,[20],> 100 µM
same,IC50,[21],12 µM
O=C1C=CCN(O)C(=O)N1O,Ki,[6],388 µM
same,Ki,[7],53 µM
O=c1c(O)cccc(O)c1O,inhibition,Escherichia coli [22],54%
same,inhibition,Escherichia coli [23],2%
same,IC50,[1],40 µM
same,IC50,[16],11 µM
same,IC50,[24],0.3 µM
same,IC50,B16 [10],0.26 µM
same,IC50,B16 [25],60 µM
same,IC50,B16 [26],90 µM
same,IC50,B16 [27],70 µM
same,MST,B16 [28],29 days
same,MST,B16 [29],12 days
same,IC50,[13],8 µM
same,IC50,[14],60 µM
same,IC50,[15],3 µM
same,IC50,[2],20 µM
same,IC50,[3],3.2 µM
CC(C)c1ccc(O)c(=O)c(O)c1 [BETA-THUJAPLICINOL],inhibition,Escherichia coli [30],100%
same,inhibition,Escherichia coli [31],31%
same,IC50,[32],5.9 µM
same,IC50,[33],2.3 µM
same,EC50,Hepatitis B virus [34],5 µM
same,IC50,[35],1.4 µM
same,MIC,Poria,10 µM
same,MIC,Coniophora puteana,10 µM
same,MIC,[36],800 µM
same,MIC,[37],330 µM
same,MIC,[38],100 µM
same,LD50 at 48 h,[39],175 mg/kg
same,LD50 at 72 h,[40],155 mg/kg
same,IC50,[18],0.2 µM
same,IC50,[19],0.8 µM
same,IC50,[20],50 µM
same,IC50,[21],5.7 µM
same,IC50,[2],0.2 µM
CC(C)c1ccc(O)c(=O)cc1 [GAMMA-THUJAPLICIN],MIC,Poria,10 µM
same,MIC,Coniophora puteana,10 µM
same,MIC,[36],70 µM
same,MIC,[37],50 µM
same,MIC,[38],50 µM
NCc1ccc(-c2ccc(Cc3cc(=O)n(O)c4ncccc34)cc2)cc1,IC50,[32],2.5 µM
same,inhibition at 10 µM,Hepatitis B virus [41],93%
same,IC50,[35],0.41 µM
O=C(O)c1cc(O)c(O)c(=O)c(O)c1,IC50,Plasmodium falciparum [11],0.05 µM
same,IC50,Plasmodium falciparum [12],0.05 µM
same,IC50,MRC5,360 µM
same,ED50,Plasmodium falciparum [42],< 2 mg/kg
same,IC50,[13],10 µM
O=c1cccccc1O [TROPOLONE],IC50,Plasmodium falciparum [11],> 100 µM
same,IC50,[13],> 1000 µM
same,IC50,[14],> 1000 µM
same,IC50,[15],2 µM
same,IC50,[18],> 100 µM
same,IC50,[19],> 100 µM
same,IC50,[20],> 100 µM
same,IC50,[21],3 µM
C[C@H]1[C@H](OC(=O)CCC(=O)O)O[C@@H]2O[C@@]3(C)CC[C@H]4[C@H](C)CC[C@@H]1[C@@]24OO3 [ARTESUNATE],IC50,Plasmodium falciparum [11],0.01 µM
same,IC50,Plasmodium falciparum [12],0.0025 µM
same,IC50,MRC5,36 µM
same,ED50,Plasmodium falciparum [42],1.7 mg/kg
